PubChem BioAssay AID248 (DTP/NCI, 2004)
Several values for one entry are separate records, joined by “and”; a condition that tells them apart may be missing. Identical values can stand only once. Inconclusive results and toxic doses are left out. Cut-off read from the data, not from the text of the source: active = T/C of 150% or more; inactive = T/C below 125%.

Tested on: L1210 leukemia ip in BDF1 mice, survival T/C
Assay: NCI In Vivo Anticancer Drug Screen. Data for tumor model L1210 Leukemia (intraperitoneal) in B6D2F1 (BDF1) mice
Conditions: endpoint: mean survival time, higher = longer survival
How it was run: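 Survival endpoint. Drug-treated group vs vehicle group, expressed as T divided by C. Tumor passaged by transplantation.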

[1] = dose: 400.0 mg/kg/injection, schedule: Q04DX002 (ip), vehicle: saline with Tween-80
[2] = dose: 100.0 mg/kg/injection, schedule: Q01DX009 (ip), vehicle: saline
[3] = dose: 200.0 mg/kg/injection, schedule: Q01DX009 (ip), vehicle: saline
[4] = dose: 400.0 mg/kg/injection, schedule: Q01DX009 (ip), vehicle: saline
[5] = dose: 100.0 mg/kg/injection, schedule: Q04DX003 (ip), vehicle: Klucel (hydroxypropylcellulose) (HPC)
[6] = dose: 200.0 mg/kg/injection, schedule: Q04DX003 (ip), vehicle: Klucel (hydroxypropylcellulose) (HPC)
[7] = dose: 400.0 mg/kg/injection, schedule: Q04DX003 (ip), vehicle: Klucel (hydroxypropylcellulose) (HPC)
[8] = dose: 100.0 mg/kg/injection, schedule: Q04DX003 (ip), vehicle: saline with Tween-80
[9] = dose: 200.0 mg/kg/injection, schedule: Q04DX003 (ip), vehicle: saline with Tween-80
[10] = dose: 100.0 mg/kg/injection, schedule: Q01DX009 (ip), vehicle: Klucel (hydroxypropylcellulose) (HPC)
[11] = dose: 200.0 mg/kg/injection, schedule: Q01DX009 (ip), vehicle: Klucel (hydroxypropylcellulose) (HPC)
[12] = dose: 400.0 mg/kg/injection, schedule: Q01DX009 (ip), vehicle: Klucel (hydroxypropylcellulose) (HPC)
[13] = dose: 100.0 mg/kg/injection, schedule: Q01DX001 (ip), vehicle: saline
[14] = dose: 100.0 mg/kg/injection, schedule: Q01DX009 (ip), vehicle: saline with Tween-80
[15] = dose: 200.0 mg/kg/injection, schedule: Q01DX001 (ip), vehicle: saline
[16] = dose: 200.0 mg/kg/injection, schedule: Q01DX009 (ip), vehicle: saline with Tween-80
[17] = dose: 400.0 mg/kg/injection, schedule: Q01DX001 (ip), vehicle: saline
[18] = dose: 50.0 mg/kg/injection, schedule: Q01DX009 (ip), vehicle: saline with Tween-80
[19] = dose: 100.0 mg/kg/injection, schedule: Q01DX001 (ip), vehicle: carboxymethylcellulose (CMC)
[20] = dose: 200.0 mg/kg/injection, schedule: Q01DX001 (ip), vehicle: carboxymethylcellulose (CMC)
[21] = dose: 400.0 mg/kg/injection, schedule: Q01DX001 (ip), vehicle: carboxymethylcellulose (CMC)
[22] = dose: 100.0 mg/kg/injection, schedule: Q04DX002 (ip), vehicle: saline with Tween-80
[23] = dose: 200.0 mg/kg/injection, schedule: Q04DX002 (ip), vehicle: saline with Tween-80
[24] = dose: 75.0 mg/kg/injection, schedule: Q01DX001 (ip), vehicle: saline
[25] = dose: 150.0 mg/kg/injection, schedule: Q01DX001 (ip), vehicle: saline
[26] = dose: 100.0 mg/kg/injection, schedule: Q04DX002 (ip), vehicle: Klucel (hydroxypropylcellulose) (HPC)
[27] = dose: 200.0 mg/kg/injection, schedule: Q04DX002 (ip), vehicle: Klucel (hydroxypropylcellulose) (HPC)
[28] = dose: 400.0 mg/kg/injection, schedule: Q04DX002 (ip), vehicle: Klucel (hydroxypropylcellulose) (HPC)

Measured: T/C

Clc1ccc2c(NCCNC3CCCCC3)ccnc2c1
inactive: dose: 9.38 mg/kg/injection, schedule: Q01DX001 (ip), vehicle: saline 105 % of control | dose: 18.75 mg/kg/injection, schedule: Q01DX001 (ip), vehicle: saline 100 % of control | dose: 37.5 mg/kg/injection, schedule: Q01DX001 (ip), vehicle: saline 108 % of control

O=C(O)c1c(F)c(F)c(O)c(F)c1F
inactive: dose: 25.6 mg/kg/injection, schedule: Q04DX002 (ip), vehicle: saline with Tween-80 103 % of control | dose: 64.0 mg/kg/injection, schedule: Q04DX002 (ip), vehicle: saline with Tween-80 110 % of control | dose: 160.0 mg/kg/injection, schedule: Q04DX002 (ip), vehicle: saline with Tween-80 89 % of control | [1] 103 % of control

O=C1N(CO)C2C(N1CO)N(CO)C(=O)N2CO (stereo not drawn)
inactive: dose: 44.0 mg/kg/injection, schedule: Q04DX003 (ip), vehicle: saline 100 % of control | dose: 66.0 mg/kg/injection, schedule: Q04DX003 (ip), vehicle: saline 103 % of control | [2] 118 % of control | dose: 100.0 mg/kg/injection, schedule: Q04DX003 (ip), vehicle: saline 103 % of control | dose: 150.0 mg/kg/injection, schedule: Q04DX003 (ip), vehicle: saline 102 % of control | [3] 113 % of control | dose: 200.0 mg/kg/injection, schedule: Q04DX003 (ip), vehicle: saline 115 % of control | [4] 116 % of control | dose: 400.0 mg/kg/injection, schedule: Q04DX003 (ip), vehicle: saline 114 % of control

CC(C)Nc1nc(NC(C)C)nc(NC(C)C)n1
inactive: [5] 92 % of control | [6] 87 % of control | [7] 90 % of control

Cc1cc(Cl)c(=O)n(-c2ccc(Cl)cc2)n1
inactive: dose: 50.0 mg/kg/injection, schedule: Q04DX003 (ip), vehicle: saline with Tween-80 109 % of control | [8] 103 % of control | [9] 98 % of control

c1ccc2c(C3OCC4(CCCCC4)CO3)cccc2c1
inactive: [10] 97 % of control | [5] 101 % of control | [11] 97 % of control | [6] 105 % of control | [12] 92 % of control | [7] 111 % of control

COC1CC(OS(=O)(=O)c2ccc(C)cc2)C(O)C(C)O1 (stereo not drawn)
inactive: [13] 103 % of control | [14] 96 % of control | [8] 100 % of control | [15] 94 % of control | [16] 94 % of control | [9] 100 % of control | [17] 100 % of control | dose: 400.0 mg/kg/injection, schedule: Q01DX009 (ip), vehicle: saline with Tween-80 96 % of control | dose: 400.0 mg/kg/injection, schedule: Q04DX003 (ip), vehicle: saline with Tween-80 97 % of control

Nc1ccc(CCCCc2ccccc2)cc1
inactive: dose: 25.0 mg/kg/injection, schedule: Q01DX009 (ip), vehicle: saline with Tween-80 96 % of control | [18] 89 % of control

CC(C)(C)COC(=O)c1ccccc1
inactive: [19] 102 % of control | [20] 91 % of control | [21] 91 % of control

O=C(/C=C/c1ccc(O)cc1)c1ccc(Cl)cc1
inactive: [13] 98 % of control | [15] 87 % of control | [17] 90 % of control

NS(=O)(=O)c1ccccc1C(=O)O
inactive: [2] 96 % of control | [3] 91 % of control

COCCOCC(=O)O
inactive: [22] 101 % of control | [23] 96 % of control | [1] 108 % of control

Cc1sc2ccc(-c3ccccc3)cc2[n+]1C
inactive: [24] 105 % of control | [25] 102 % of control | dose: 300.0 mg/kg/injection, schedule: Q01DX001 (ip), vehicle: saline 107 % of control

CCS(=O)(=O)N1CCCC(C)C1 (stereo not drawn)
inactive: [22] 105 % of control | [23] 92 % of control | [1] 92 % of control

COc1ccc(CC2COC(O)C2Cc2ccc(OC3OC(CO)C(O)C(O)C3O)c(OC)c2)cc1OC (stereo not drawn)
inactive: dose: 100.0 mg/kg/injection, schedule: Q04DX002 (ip), vehicle: saline 102 % of control | dose: 200.0 mg/kg/injection, schedule: Q04DX002 (ip), vehicle: saline 112 % of control | dose: 400.0 mg/kg/injection, schedule: Q04DX002 (ip), vehicle: saline 87 % of control

c1ccc2c(c1)C1c3cccc[n+]3C2C2C1CC1C3c4ccccc4C(C12)[n+]1ccccc13 (stereo not drawn)
inactive: dose: 1.56 mg/kg/injection, schedule: Q04DX003 (ip), vehicle: saline 100 % of control | dose: 3.12 mg/kg/injection, schedule: Q01DX009 (ip), vehicle: saline 111 % of control | dose: 3.12 mg/kg/injection, schedule: Q04DX003 (ip), vehicle: saline 96 % of control | dose: 6.25 mg/kg/injection, schedule: Q01DX009 (ip), vehicle: saline 100 % of control and 88 % of control | dose: 6.25 mg/kg/injection, schedule: Q04DX003 (ip), vehicle: saline 95 % of control | dose: 12.5 mg/kg/injection, schedule: Q01DX009 (ip), vehicle: saline 100 % of control and 102 % of control

NC(=O)NC1OC(CO)C(O)C(O)C1O (stereo not drawn)
inactive: [2] 95 % of control | [3] 94 % of control | [4] 86 % of control

Cn1c(C[N+](C)(C)C)cc2ccccc21
inactive: [8] 104 % of control | [9] 96 % of control

CCOc1cccc(Cc2cn(CCC#N)c(=O)[nH]c2=O)c1
inactive: [5] 108 % of control | [6] 89 % of control | [7] 89 % of control

OCCC=C(c1ccccc1)c1ccccc1
inactive: [18] 107 % of control | [14] 100 % of control | [16] 104 % of control

CC(O)c1cccc(NC(=O)Nc2cccc(C(F)(F)F)c2)c1 (stereo not drawn)
inactive: dose: 100.0 mg/kg/injection, schedule: Q01DX001 (ip), vehicle: Klucel (hydroxypropylcellulose) (HPC) 104 % of control | [10] 100 % of control and 109 % of control | [26] 110 % of control and 111 % of control | [5] 99 % of control | dose: 200.0 mg/kg/injection, schedule: Q01DX001 (ip), vehicle: Klucel (hydroxypropylcellulose) (HPC) 98 % of control | [11] 107 % of control and 116 % of control | [27] 108 % of control | [6] 95 % of control | dose: 400.0 mg/kg/injection, schedule: Q01DX001 (ip), vehicle: Klucel (hydroxypropylcellulose) (HPC) 98 % of control | [12] 101 % of control and 89 % of control | [28] 112 % of control and 115 % of control | [7] 103 % of control

CC(Cl)CN(Cc1c(O)ccc2ccccc12)CC(C)Cl (stereo not drawn)
inactive: [19] 96 % of control | [20] 107 % of control | [21] 101 % of control

COc1ccc(OC)c(NCCCN2C(=O)c3ccccc3C2=O)c1
inactive: [26] 87 % of control | [27] 102 % of control | [28] 91 % of control

CCCCCCC(C)NCCOC(=O)c1ccc(N)cc1 (stereo not drawn)
inactive: dose: 38.0 mg/kg/injection, schedule: Q04DX003 (ip), vehicle: other 104 % of control | dose: 75.0 mg/kg/injection, schedule: Q01DX001 (ip), vehicle: other 106 % of control and 98 % of control | [24] 96 % of control and 100 % of control | dose: 75.0 mg/kg/injection, schedule: Q04DX003 (ip), vehicle: other 104 % of control | dose: 150.0 mg/kg/injection, schedule: Q01DX001 (ip), vehicle: other 98 % of control and 93 % of control | [25] 91 % of control

C[n+]1cccc(C=O)c1
inactive: [2] 100 % of control | [3] 101 % of control | [4] 100 % of control
